Data as given in patent publication US20190256827A1, “EPIGENOME EDITING SYSTEMS AND METHODS” (STC.UNM, priority 2017, published 2019).

Tested on: IL1RN locus in HEK293T cells
Test: ChIP-qPCR of FLAG-ABI-P300 and H3K27Ac at the IL1RN locus (dCas9-PYL-HA, FLAG-ABI-P300, IL1RN sgRNAs)
Format: cell-based, human
Description: To examine the recruitment of FLAG-ABI-P300, HEK293T cells were co-transfected with IL1RN sgRNAs, dCas9-PYL-HA and FLAG-ABI-P300 plasmids for 24 hours. Cells were then either treated or not treated with 100 μM ABA for another 24 hours before being harvested. Portions of the cell lysates were analyzed by using ChIP (with anti-FLAG antibody) and qPCR assays to quantify the level of FLAG-ABI-P300. […] To determine if the level of H3K27Ac changes in response to the FLAG-ABI-P300 localization, portions of the cell lysates produced in the above experiment were subjected to ChIP (using anti-H3K27Ac antibody) and qPCR assays to quantify the H3K27Ac enrichment.
Human embryonic kidney cell HEK293T (American Type Culture Collection, Manassas, Va.) was cultured in Dulbecco's modified Eagle's medium (DMEM) (Gibco) with 10% FBS (Atlanta Biologicals), 1× GlutaMax (Gibco, Thermo Fisher Scientific, Inc., Waltham, Mass.), and 1× penicillin/streptomycin (Pen/Strep; Gibco, Thermo Fisher Scientific, Inc., Waltham, Mass.). Cells (100,000/ml) were plated in 24-well or 10-cm cell culture plate the day before transfection. For each well of 24-well plate transfection, 500 ng of dCas9-PYL-HA, 420 ng of FLAG-ABI-P300, and a total amount of 200-ng mix of gRNAs, with a 50-ng per each gRNA, were mixed with 50×(v/w) Opti-MEM (Gibco, Thermo Fisher Scientific, Inc., Waltham, Mass.), then incubate with the same volume of 3 μg PEI-Opti-MEM solution for 20 minutes at room temperature. Then, 100 μL of PEI-combined plasmids were added to every single well of 24-well plate and cultured for 24 hours before experiments were performed. For a 10 cm plate, 1 mL of PEI-combined plasmids were needed. After six hours transfection, cells were washed and incubated for another 1-72 hours before experiments were performed.
ChIP protocol was optimized from the method in Molecular Cloning, Fourth edition (Cold Spring Harbor Laboratory Press, 2012). In brief, cells cultured in a 10-cm plate were fixed with 1 mL of cross-linking buffer (0.1 M NaCl, 1 mM EDTA, 0.5 mM EGTA, 50 mM HEPES and 11% formaldehyde), and shaken in room temperature for 15 minutes. Then 1.1 mL of 1.25 M glycine was added to the solution to stop crosslinking. After washing three times in ice cold PBS, cells were scraped and suspended in 10 mL of lysis buffer (50 mM HEPES, 140 mM NaCl, 1 mM EDTA, 10% Glycerol, 0.5% NP40, 0.25% Triton X-100), and rocked at 4° C. for 10 minutes. Cells were centrifuged at 1,000×g for 10 minutes and were resuspended in protein extraction buffer (200 mM NaCl, 1 mM EDTA, 0.5 mM EGTA, 10 mM Tris). Nuclei were pelleted by centrifuging at 1,000×g for 15 minutes at 4° C., resuspended in 2 mL of chromatin extraction buffer (1 mM EDTA, 0.5 mM EGTA, 10 mM Tris), and divided into six sonication tubes. Then, the samples were sonicated for 24 cycles at a 30 seconds on/30 seconds off protocol. Then samples were moved to a new centrifuge tube and insoluble debris were removed by centrifuge at 2,000×g for 20 minutes at 4° C. 10% volume of samples were stored at −80° C. as 10% input control. […] Then, sample-bound beads were washed eight times with RIPA buffer (50 mM HEPES, 1 mM EDTA, 1% NP40, 0.7% DOC, 0.5 M LiCl, 1× protease inhibitor complete cocktail), and finally re-suspended in TE (pH 8.0) buffer to wash. Then TE buffer was removed completely, 50 μL of elution buffer (10 mM Tris, 1 mM EDTA, 1% SDS) was added and the samples were incubated for 10 minutes at 65° C. and rocked every two minutes. The liquid was collected, 120 μL of elution buffer was added, and the samples were incubated at 65° C. overnight. Samples of 10% input were incubated with […] elution buffer at 65° C. overnight, too. To remove histones, washing buffer (140 μL of TE buffer, 3 μL of 20 mg/ml glycogen and 7 μL of 10 mg/ml Proteinase K) was added and incubated two hours at 37° C. Then ChIP samples were purified with phenol:chloroform:isoamyl alcohol (25:24:1) twice, then purified aqueous in chloroform. […]

[1] = IL1RN locus, time course after ABA addition

SMILES: CC1=CC(=O)CC(C)(C)[C@@]1(O)/C=C/C(C)=C\C(=O)O [ABA, abscisic acid]
- FLAG-ABI-P300 level at the IL1RN locus (100 μM ABA for 24 hours vs not treated, anti-FLAG ChIP): increase in FLAG-ABI-P300 level
- H3K27Ac levels at the IL1RN locus (24 h after ABA addition (100 μM) vs not treated, anti-H3K27Ac ChIP): H3K27Ac levels increase
- stability of H3K27Ac at the IL1RN locus after ABA removal (ABA for 12, 24 or 48 hours, then washed): the longer cells were treated with ABA, the slower H3K27Ac was removed after washing
- FLAG-ABI-P300 level at the IL1RN locus after washing to remove ABA (ABA for 12, 24 or 48 hours, then washed with non-ABA media): rapidly decreases to a near background level within one hour following washing
- time at which the level of H3K27Ac begins to rise [1]: one hour after ABA addition
- time until which H3K27Ac continues to increase [1]: 48 h
- time at which FLAG-ABI-P300 reaches a maximal level at the IL1RN locus (time course after ABA addition): 12 h
- time of FLAG-ABI-P300 recruitment to the IL1RN locus after ABA addition (time course after ABA addition): Within one hour
